The numbers were not newly measured in patent US20160158245A1, “PHARMACEUTICAL FORMULATION CONTAINING THIENOTRIAZOLODIAZEPINE COMPOUNDS” (ONCOETHIX GmbH, priority 2013, published 2016), which cites them from elsewhere.

The subject of this data set is BRD4 and c-MYC. To be noted: cited from earlier work.

Regarding `Cc1sc2c(c1C)C(c1ccc(Cl)cc1)=N[C@@H](CC(=O)OC(C)(C)C)c1nnc(C)n1-2` [JQ1], the “BRD4 and c-MYC down-regulation” value is “induce BRD4 down-regulation and subsequently c-MYC down-regulation”.
